From patent US20220195386A1, “COMPOSITIONS AND METHODS FOR MAKING SENSORY NEURONS” (University of Georgia Research Foundation, Inc., priority 2020, published 2022)

B1: NT-3: Neurotrophin-3, binds to TRKC; used to promote differentiation of proprioceptors (protein, UniProt P20783 139-257, looked up)
Neurotrophin-3: YAEHKSHRGEYSVCDSESLWVTDKSSAIDIRGHQVTVLGEIKTGNSPVKQYFYETRCKEARPVKNGCRGIDDKHWNSQCKTSQTYVRALTSENNKLVGWRWIRIDTSCVCALSRKIGRT

Tests used:
[1] = tested on: hESC-derived SNs; assay: Multi-electrode array (MEA) recording of SN firing after incubation with nociceptor agonists; type: cell-based, human; details: titrated, incubated for 1 min before data acquisition; 5 min recordings; normalized to untreated control (basal); FIG. 2K
Experimental: Experiments were performed using a Maestro Pro (Axion Biosystems) MEA system. CytoView MEA 96 plates containing 8 embedded electrodes/well were coated with PO/LM/FN 448 and seeded with NCCs (day 6 or 12) or SNs (day 30). Repeated recordings were made every 5 days at 37° C. with a sampling frequency of 12.5 kHz for 5 min. Recordings from at least 6 wells were averaged per reading. Bursts were detected using Inter-Spike Interval (ISI). Capsaicin, WIN 55,212 and Pregnenolone were titrated and incubated for 1 min before data acquisition. Hypoosomotic media was obtained by mixing Sensory neuron media with sterile water in a 45:55 ratio, treatment was done for 1 min.

[2] = tested on: SNs differentiated from NCCs replated on day 12; assay: SN subtype enrichment with growth factors, TRKA/TRKB/TRKC quantified by flow cytometry (FACS) on day 20; type: cell-based, human; details: NCCs replated day 12 in SN differentiation media containing GDNF and the indicated growth factor; FACS analysis on day 20; FIG. 7B
From the text: FIGS. 7A-7G illustrates strategies for SN subtype enrichment (related to FIGS. 3A-3F). FIG. 7A is a schematic of an initial approach. On day 12 of differentiation, NCCs were replated using SN differentiation media containing GDNF and the indicated growth factors and analyzed by flow cytometry. FIG. 7B is a bar graph showing quantification of SNs differentiated using enrichment media as indicated on 7A. SNs were stained with TRKA, TRKB and TRKC antibodies and quantified by flow cytometry. DAPI was used as viability dye. FIGS. 7C-7F are a series of scatter plots showing identification (7C) of subpopulation of noci- (7D), mechano- (7E), and proprioceptor (7F) enrichment by flow cytometry. Side scatter and forward scatter showing gated areas where each subtype is enriched and the percentages of each subpopulation are shown. FIG. 7G is a bar graph showing NGN2 and NGN1 waves are present during SN differentiation. RNA from SN-biased NCCs was obtained on each indicated day and NGN1 and NGN2 expression was measured by RT-qPCR. In all experiments N>4. Graphs show mean±S.D.
Cells were dissociated with Accutase for 20 min and then washed in Flow buffer: DMEM 2% FBS and 1 mM L-glutamine. Cells were centrifuged at 200 g for 4 min and resuspended in cold PBS, they were counted and diluted to a concentration of 1×10^6 cells/100 μL and incubated for 20 min (CD49d) or 1 h (TRKA, B and C) with conjugated antibody. Cells were then washed twice in Flow buffer, and incubated with DAPI (1:1,000) in 300 μL of Flow buffer for 5 mins. Cells were filtered and transferred to a 96-well plate. Samples were run using a Cytoflex S (Beckman). All subsequent analysis was done using FlowJo.
Contrary to previous reports (Alshawaf, et al., Scientific Reports 8, 603 (2018), Chambers, et al., Nat. Biotechnol. 30, 715-720 (2012), Schrenk-Siemens, et al., Nat. Neurosci. 18, 10-550 16 (2015)), the investigated protocol generates all three SN subtypes (FIG. 1H, 1I). Thus, methods to enrich distinct SN subtypes from bulk cultures were investigated. […]

Molecule | firing rate of SNs (MEA) [1] | SN subtype enrichment (TRKA, TRKB, TRKC by FACS) [2]
COc1cc(CNC(=O)CCCC/C=C/C(C)C)ccc1O [capsaicin] | increased firing rate | –
Cc1c(C(=O)c2cccc3ccccc23)c2cccc3c2n1[C@H](CN1CCOCC1)CO3 [WIN 55, 212-2] | increased firing rate | –
CC(=O)[C@H]1CC[C@H]2[C@@H]3CC=C4C[C@@H](O)CC[C@]4(C)[C@H]3CC[C@]12C [pregnenolone] | increased firing rate | –
NGF: Nerve growth factor, binds to TRKA; used to promote differentiation of nociceptors | – | no subtype enrichment
BDNF: Brain-derived neurotrophic factor, binds to TRKB; used to promote differentiation of mechanoreceptors | – | no subtype enrichment
B1 | – | no subtype enrichment
